This passage reports MIC, solubility and bioavailability results from patent US10399968B2, “Hydroxyalkyl thiadiazole derivatives” (Daiichi Sankyo Company, Limited, priority 2015, dated 2019).

≈ marks a conversion by molar mass, not a printed value. Read-outs that look alike come from different tables or passages of the source.

One data set has as its system P. acnes ATCC 6523. As to the kind of experiment: Susceptibility of P. acnes, agar dilution MIC. The data set is classed as cell-based. As to conditions: Cutibacterium acnes, ATCC6523, anaerobic. As to the method: (§1) The antibacterial activity of the compounds of the present invention against P. acnes clinical isolates was tested by the agar dilution method. The assay was carried out according to the CLSI guidelines document (Clinical and Laboratory Standards Institute, 2012 & 2016). The test strains were spread on supplemented Brucella agar (SBA) plates and grown for 42 to 48 hours at 36° C. under anaerobic condition. The test compound dilutions were prepared with Brucella broth and SBA plates containing dilution of test compound were prepared. As an anaerobic growth control and to check the aerobic contamination, plates not containing the test compound were also prepared. Colonies grown on plates were suspended with Brucella broth to adjust the turbidity to 0.5 McFarland using a densitometer. Suspension (1-2 μL) of the test strains was inoculated onto each agar surface by using a bacterial suspension inoculation apparatus (multipoint inoculator). After anaerobic incubation for 42 to 48 hours at 36° C., absence and presence of growth of each strain on growth control plates and test compounds plate were examined with unaided eye. The MIC was determined at which a marked reduction occurs in the appearance of growth on the test plate as compared to that of growth on the anaerobic control plates.
For orientation: In agar dilution, organisms are placed on agar that contains the substance at set levels.

In a further data set the test system is P. acnes IHMA 103740. The data set can be described thus: Susceptibility of P. acnes, agar dilution MIC. Type of data set: cell-based. Particulars: Cutibacterium acnes, IHMA103740, anaerobic. As to the method: as §1
The next data set has as its system P. acnes IHMA 775486. The data set can be described thus: Susceptibility of P. acnes, agar dilution MIC. The data set is classed as cell-based. As to conditions: Cutibacterium acnes, IHMA775486, anaerobic. The procedure: as §1
In a further data set the test system is P. acnes ATCC 6921. As to the kind of experiment: Susceptibility of P. acnes, agar dilution MIC. The data set is classed as cell-based. As to conditions: Cutibacterium acnes, ATCC6921, anaerobic. As to the method:
as §1

Data set [1] is described as follows: Solubility in water (JP1 / JP2 fluids). The data set is classed as physicochemical. As to conditions: thermodynamic from solid. The procedure, abridged: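 DMSO stock (10 mmol/L) dried down, residue shaken 30 min in JP1 or JP2 fluid after 1 min sonication, then held 1 h dark at room temperature. Filtrate diluted and quantified by UPLC against 100 and 5 μmol/L standards.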

A further data set relates to E. faecium ATCC 29212. As to the kind of experiment: Susceptibility of bacteria, broth microdilution MIC. Type of data set: cell-based. As to conditions: Enterococcus faecium, ATCC29212. As to the method: (§2) The antibacterial activity of the compounds of the present invention was tested by the broth microdilution method. The assay was carried out according to the CLSI guidelines for managing the procedures of susceptibility tests: “M7-A7 Methods for Dilution Antimicrobial Susceptibility Tests for Bacteria That Grow Aerobically; Approved Standard-Seventh Edition (2006)”. Test strains were grown on appropriate agar plates overnight. A broth containing the test compound diluted serially 2-fold and diluents were dispensed at 100 μL to each well of a 96-well microplate. As a growth control, a well with a broth not containing the test compound was also prepared. Colonies grown on the plates were suspended in saline, adjusted to 0.5 McFarland (OD625=0.08 to 0.10) using a colorimeter, and then diluted 10-fold with saline. The bacterial suspension was inoculated at 4 μL into each well of the microplate using a bacterial suspension inoculation apparatus. The inoculated microplate was incubated at 35° C. overnight (about 20 hours). The growth condition was observed by the naked eye, and the minimum concentration to inhibit bacterial proliferation was defined as a minimum inhibitory concentration (MIC).
On the technique in general: Broth dilution looks for growth in wells or tubes with falling amounts of substance.

The subject of data set [2] is Haemophilus influenzae ATCC 49247. The description is as above. Type of data set: cell-based. As to conditions: ATCC49247. As to the method:
as §2

Data set [3] deals with Streptococcus pneumoniae ATCC 49619. The description is as above. Type of data set: cell-based. As to conditions: ATCC49619. As to the method: as §2
A short description of data set [4]: Oral bioavailability (BA) in monkeys. As to conditions: male, cynomolgus monkey, blood, 1 mg/kg oral vs jugular vein. The data set is classed as in vivo, Macaca fascicularis. The procedure: To male Macaca fascicularis (3 or 4 year-old) fasted overnight, a solution of the test compound Captisol® was administered into the jugular vein (3 animals) and a solution of Lutrol® F68 was orally administered (3 animals). The dose of both test compounds was 1 mg/kg body weight of the monkey. The amount of Captisol® used was 0.18 mg/kg body weight of the monkey. The amount of Lutrol® F68 used was 0.02 mg/kg body weight of the monkey. The BA value was calculated by the formula below using the integration value (AUCiv(0-∞)) of the blood concentration extrapolated from time 0 to infinity after administration of both test compounds. BA(%)=[[(AUCpo(0-∞))/(dose po)]/[(AUCiv(0-∞))/(dose iv)]]×100 The greater a BA value of the compound shown, the higher the oral bioavailability is.

For data set [5], the system named is N. gonorrhoeae clinical isolates. As to the kind of experiment: Susceptibility of N. gonorrhoeae, agar dilution MIC. Type of data set: cell-based. The procedure: The antibacterial activity of the compounds of the present invention against N. gonorrhoeae clinical isolates was tested by the agar dilution method [Clinical and Laboratory Standards Institute, 2016]. The test strains were spread on chocolate agar plates and grown for 20-24 h at 36° C. in 5% carbon dioxide. The test compound dilutions were prepared with broth and agar MIC plates were prepared using GC agar base supplemented with haemoglobin and 1% IsoVitaleX plates. As growth control plates not containing the test compound were also prepared. Colonies grown on plates were suspended with broth to adjust the turbidity to 0.5 McFarland using a densitometer. Suspension (1-2 μL) of the test strains was inoculated onto each agar surface by using a bacterial suspension inoculation apparatus (multipoint inoculator). After aerobic incubation for 20-24 h at 36° C. in 5% carbon dioxide, absence and presence of growth of each strain on growth control plates and test compounds plate were examined with unaided eye. The MIC was determined at which a marked reduction occurs in the appearance of growth on the test plate as compared to that of growth on the aerobic control plates.

Where [6] appears, read: Japanese Pharmacopeia First Fluid (JP1), pH 1.2, simulated gastric fluid, read-out: Solubility JP1.
The mark [7] stands for this setting: Japanese Pharmacopeia Second Fluid (JP2), pH 6.8, aqueous buffer, read-out: Solubility JP2.

Broadly, the solubility is the dissolved amount per volume that the medium holds. The term bioavailability denotes dose-corrected exposure relative to a reference, in per cent. Read a high bioavailability as good availability.

Turning to `CCc1[nH]c(C(=O)N[C@@H]2CCN(c3nnc(C(C)(C)O)s3)C[C@@H]2OC)nc1Cl` [Compound No. 2, 4-Chloro-5-ethyl-N-{(3S,4R)-1-[5-(2-hydroxypropan-2-yl)-1,3,4-thiadiazol-2-yl]-3-methoxypiperidin-4-yl}-1H-imidazole-2-carboxamide], the MIC in the data set with P. acnes ATCC 6523 turned out to be 0.125 µg/mL (≈ 0.291 µM); against P. acnes IHMA 103740 it was 0.125 µg/mL (≈ 0.291 µM); with P. acnes IHMA 775486 it was 0.125 µg/mL (≈ 0.291 µM); with P. acnes ATCC 6921, 0.125 µg/mL (≈ 0.291 µM); with E. faecium ATCC 29212, 0.25 µg/mL (≈ 0.583 µM); in data set [2] it was 0.5 µg/mL (≈ 1.17 µM). Further, the MIC in [3] and in data set [5] was 0.25 µg/mL (≈ 0.583 µM) in each case. Moreover, the figures for the solubility at 30 min in data set [1] (setting [6]) and in [1] (setting [7]) were 706 µg/mL (≈ 1650 µM) and 256 µg/mL (≈ 597 µM), respectively. Besides, the bioavailability in data set [4] amounted to 85%.

With `CCc1[nH]c(C(=O)N[C@@H]2CCN(c3nnc([C@H](C)O)s3)C[C@@H]2OC)nc1Cl` (single isomer, unassigned) [Compound No. 5], the solubility at 30 min in data set [1] (setting [6]) was 680 µg/mL (≈ 1640 µM); in [1] (setting [7]) it was 359 µg/mL (≈ 865 µM). In addition, the MIC in the data set with E. faecium ATCC 29212 came out at 0.25 µg/mL (≈ 0.603 µM); in data set [2] it was 1 µg/mL (≈ 2.41 µM); in [3], 0.25 µg/mL (≈ 0.603 µM). The compound also yielded a bioavailability in data set [4] of 100%.
